Measurements reported in patent publication EP4711366A1, “PYRIMIDO MACROHETEROCYCLIC COMPOUND AS WEE1-YES DUAL-TARGET INHIBITOR AND USE THEREOF” (Mindrank AI Ltd., priority 2023, dated 2024).

Experiments:
Wee1 kinase = Wee1 kinase (Homo sapiens, UniProt P30291); test: WEE1 protein kinase inhibitory activity assay (ADP-GLO luminescence); type: biochemical; conditions: for IC50: Wee1 10 ng/well, ATP 10 µM, 3 h, 37 °C; for inhibition of the Weel target (in words): summary statement on the assay results
Method: The influence of the compound MRANK-106 of the present disclosure on the kinase activity of Weel was assessed using an in vitro kinase reaction system.
Table 2-1. Information about reagents and consumables
① 1× kinase buffer: A 5× kinase buffer was diluted with ddH2O to make a 1× kinase buffer. Table 2-3. The reagent components added to the 1× kinase buffer
③ 5× enzyme working solution: The optimization of the enzyme concentration had been completed in previous work, and the concentration of the reagent used in the screening is shown in Table 2-4. A 5× enzyme working solution of the enzyme was formulated using the 1× kinase buffer.
④ Compound formulation: A 10 mM mother liquor was formulated using DMSO, aliquoted, and then stored at -20 °C. Immediately before use, the mother liquor was thawed, diluted with DMSO to 1 mM, serially diluted 4-fold to 10 concentration points, and then 40-fold diluted with the 1× kinase buffer to give a 2.5× working solution. Table 2-4. The experimental conditions for the kinase activity assay
After the above reagents were formulated and equilibrated to room temperature, 4 µL of the diluted solution of the compound to be tested and 2 µL of the formulated enzyme solution were added to reaction wells. After shaking and centrifugation, the plate was incubated at room temperature for 15 min, and 4 µL of the ATP solution was then added to start a kinase reaction. After 3 h of reaction at 37 °C, 10 µL of an ADP-GLO reagent was added. After thorough mixing, the mixture was left to react at room temperature for 40 min, and 20 µL of a detection reagent was then added. After 30 min of reaction at room temperature, the luminescence signals were detected using a SpectraMax L instrument. Two independent duplicate assays were performed. The inhibition rate of each well was calculated based on all activity wells and background signal wells, with an average calculated for duplicate wells. Meanwhile, the inhibition rate was plotted using the professional graphing and analysis software PRISM 9.0, and the IC50 was calculated.
The inhibition rates of the compounds to be tested against the kinase activity of Wee1 were calculated using the following formula: Inhibition rate% = (Lumvehicle−Lumcompound)/(Lumvehicle−Lumblank) × 100% [formula] • Lumcompound: the luminescence of the sample treatment groups • Lumvehicle: the luminescence of the solvent control group • Lumblank: the luminescence of the blank group

YES1 kinase = YES1 kinase (Homo sapiens, UniProt P07947); test: YES1 protein kinase inhibitory activity assay (HTRF); type: biochemical; conditions: for IC50: HTRF, YES1 kinase, ATP 10 µM; for inhibition of the Yes target (in words): summary statement on the assay results
Method: In this experiment, the capability of the compound MRANK-106 of the present disclosure to inhibit kinase activity was assessed by an HTRF method using a drug screening system based on the YES1 kinase.
Table 3-1. Information about reagents and consumables
The enzymatic activity conditions and HTRF system formulation are shown in Table 3-3; the experimental conditions for the kinase activity assay are shown in Table 3-4. Table 3-3. HTRF system formulation
Table 3-4. The experimental conditions for the kinase activity assay
The test compound MRANK-106 was dissolved in DMSO, and the solution was vortexed and shaken for thorough mixing. The solution was serially diluted 3-fold with DMSO, with the initial concentration being 503 nM.
① A 2× ATP/substrate solution and a 2× kinase solution were formulated using a kinase reaction buffer.
② 50 nL of the compound dilution was transferred to a 384 detection plate using Echo 655. After centrifugation, 2.5 µL of a 2× kinase solution was added to the 384 detection plate. The plate was centrifuged at 1000 rpm for 1 min and incubated at 25 °C for 10 min.
② 2.5 µL of the 2× substrate and ATP solution was added to the 384 detection plate, and the plate was centrifuged at 1000 rpm for 1 min and incubated at 25 °C for 60 min.
④ A 2× XL665 and antibody detection reagent was formulated using a detection buffer.
⑤ 5 µL of a kinase detection reagent was added to the detection plate, and the plate was incubated at 25 °C. The plate was centrifuged at 1000 rpm for 1 min and incubated at 25 °C for 1 h.
⑥ The fluorescence signals at 620 nm (Cryptate) and 665 nm (XL665) were read using a BMG high-throughput drug-screening multi-mode microplate reader.
With the reading of the negative control set as an inhibition rate of 0% and the reading of the positive control set as an inhibition rate of 100%, the inhibition rate of each test solution was calculated using the following formula: [formula] • Datapositive control: the average of the positive control well values • Datanegative control : the average of the negative control well values
The IC50 (half maximal inhibitory concentration) of the compound was obtained using the following nonlinear fitting formulas: Y = Bottom + (Top−Bottom)/(1+10^(∧)((LogIC50−X)*HillSlope)) [formula] • X: the log value of the compound concentration • Y: the inhibition rate (% inh) of the compound
The Z' factor calculation equation: Z′ = 1−3(SDmin+SDmax)/(AVEmax−AVEmin) [formula] where: • Min is the positive control Data value, and Max is the negative control DMSO Data value; • SD stands for standard deviation, and AVE stands for average.

YES1 kinase, sequence (P07947 whole entry): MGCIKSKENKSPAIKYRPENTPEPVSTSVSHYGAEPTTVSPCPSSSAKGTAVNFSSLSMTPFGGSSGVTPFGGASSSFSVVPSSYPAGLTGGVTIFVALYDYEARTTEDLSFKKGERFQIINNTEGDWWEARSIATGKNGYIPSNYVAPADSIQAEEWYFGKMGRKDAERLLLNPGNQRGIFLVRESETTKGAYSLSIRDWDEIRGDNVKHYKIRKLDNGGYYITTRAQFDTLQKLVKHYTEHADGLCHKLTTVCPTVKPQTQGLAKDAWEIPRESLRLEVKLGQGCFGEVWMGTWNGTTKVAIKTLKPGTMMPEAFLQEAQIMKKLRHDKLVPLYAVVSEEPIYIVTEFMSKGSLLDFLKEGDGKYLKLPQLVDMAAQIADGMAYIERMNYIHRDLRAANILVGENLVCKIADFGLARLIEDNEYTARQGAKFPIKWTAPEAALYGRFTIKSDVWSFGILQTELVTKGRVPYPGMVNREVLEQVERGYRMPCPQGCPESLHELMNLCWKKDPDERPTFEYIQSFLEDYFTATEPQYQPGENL
Wee1 kinase, sequence (P30291 whole entry): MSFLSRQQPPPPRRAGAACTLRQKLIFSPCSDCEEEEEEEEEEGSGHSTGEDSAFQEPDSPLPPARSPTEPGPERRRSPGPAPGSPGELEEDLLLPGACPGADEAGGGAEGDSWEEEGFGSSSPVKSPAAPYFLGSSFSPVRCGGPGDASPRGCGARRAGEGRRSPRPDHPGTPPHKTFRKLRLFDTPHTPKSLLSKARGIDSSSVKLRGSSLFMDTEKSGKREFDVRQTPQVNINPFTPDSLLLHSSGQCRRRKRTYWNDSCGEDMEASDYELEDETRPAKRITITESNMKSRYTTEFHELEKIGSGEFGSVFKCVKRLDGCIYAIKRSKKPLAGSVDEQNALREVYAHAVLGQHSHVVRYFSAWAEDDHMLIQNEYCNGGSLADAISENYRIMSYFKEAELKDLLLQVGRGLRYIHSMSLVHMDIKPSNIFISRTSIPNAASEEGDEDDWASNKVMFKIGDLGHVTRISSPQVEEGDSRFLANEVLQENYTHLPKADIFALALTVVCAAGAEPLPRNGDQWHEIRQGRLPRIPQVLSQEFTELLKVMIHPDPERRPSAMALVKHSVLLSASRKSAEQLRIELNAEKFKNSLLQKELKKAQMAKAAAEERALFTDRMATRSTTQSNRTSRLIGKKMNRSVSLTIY

Structure (SMILES) | IC50 (Wee1 kinase) [µM] | IC50 (YES1 kinase) [µM] | inhibition of the Weel target (in words) (Wee1 kinase) | inhibition of the Yes target (in words) (YES1 kinase)
[2H]C([2H])([2H])N1CCC(Oc2ccc(Nc3ncc4c(=O)n5n(c4n3)-c3cccc(n3)[C@@](C)(O)CCC=CC5)cc2C)CC1 (single isomer, unassigned) [Compound 171B] | 0.0054 | 0.346 | – | –
Cc1cc(Nc2ncc3c(=O)n4n(c3n2)-c2cccc(n2)C(C)(O)CC/C=C\C4)ccc1CN1CCN(C)CC1 (single isomer, unassigned) [Compound 219A] | 0.0131 | – | – | –
Cc1cc(Nc2ncc3c(=O)n4n(c3n2)-c2cccc(n2)C(C)(O)CC/C=C\C4)ccc1OC1CC2CN(C)CC2C1 (single isomer, unassigned) [Compound 224A] | 0.0128 | – | – | –
Cc1cc(Nc2ncc3c(=O)n4n(c3n2)-c2cccc(n2)C(C)(O)CCC=CC4)ccc1NC1CC2CCC(C1)N2C (single isomer, unassigned) [Compound 225A] | 0.0204 | – | – | –
Cc1cc(Nc2ncc3c(=O)n4n(c3n2)-c2cccc(n2)[C@@](C)(O)CCCCC4)ccc1OC1CCN(C)CC1 [Compound 29, (S)-12-hydroxy-12-methyl-2-((3-methyl-4-((1-methylpiperidin-4-yl)oxy)phenyl)amino)-7,8,9,10,11,12-hexahydro-5H-13,17-(azeno)pyrimido[4',5':3,4]pyrazolo[1,2-a][1,2]diazacyclotridecin-5-one] | 0.067 | – | – | –
Cc1cc(Nc2ncc3c(=O)n4n(c3n2)-c2cccc(n2)[C@@](C)(O)CCC=CC4)ccc1OC1CCN(C)CC1 [Compound 134, (S,Z)-12-hydroxy-12-methyl-2-((3-methyl-4-((1-methylpiperidin-4-yl)oxy)phenyl)amino)-7,10,11,12-tetrahydro-5H-13,17-(azeno)pyrimido[4',5':3,4]pyrazolo[1,2-a][1,2]diazacyclotridecin-5-one] | 0.021 | 0.0689 | strongly inhibited | strongly inhibited
CCOP1(=O)CCN(c2ccc(Nc3ncc4c(=O)n5n(c4n3)-c3cccc(n3)C(C)(O)CCC=CC5)cc2F)CC1 (stereo not drawn) [Compound 180, (Z)-2-((4-(4-ethoxy-4-oxido-1,4-azaphosphinan-1-yl)-3-fluorophenyl)amino)-12-hydroxy-12-methyl-7,10,11,12-tetrahydro-5H-13,17-(azeno)pyrimido[4',5':3,4]pyrazolo[1,2-a][1,2]diazacyclotridecin-5-one] | – | 0.0525 | strongly inhibited | strongly inhibited
CCOP1(=O)CCN(c2ccc(Nc3ncc4c(=O)n5n(c4n3)-c3cccc(n3)C(C)(O)CCC=CC5)cc2)CC1 (stereo not drawn) [Compound 181, (Z)-2-((4-(4-ethoxy-4-oxido-1,4-azaphosphinan-1-yl)phenyl)amino)-12-hydroxy-12-methyl-7,10,11,12-tetrahydro-5H-13,17-(azeno)pyrimido[4',5':3,4]pyrazolo[1,2-a][1,2]diazacyclotridecin-5-one] | 0.0332 | 0.117 | – | –
Cc1cc(Nc2ncc3c(=O)n4n(c3n2)-c2cccc(n2)C(C)(O)CC/C=C\C4)ccc1O[C@@H]1CCN(C)C1 (stereo partly drawn) [Compound 183, (R,Z)-12-hydroxy-12-methyl-2-((3-methyl-4-(((R)-1-methylpyrrolidin-3-yl)oxy)phenyl)amino)-7,10,11,12-tetrahydro-5H-13,17-(azeno)pyrimido[4',5':3,4]pyrazolo[1,2-a][1,2]diazacyclotridecin-5-one] | 0.0161 | – | – | –
CN1CCN(C(=O)c2ccc(Nc3ncc4c(=O)n5n(c4n3)-c3cccc(n3)C(C)(O)CC/C=C\C5)cc2)CC1 [Compound 185, (R,Z)-12-hydroxy-12-methyl-2-((4-(4-methylpiperazine-1-carbonyl)phenyl)amino)-7,10,11,12-tetrahydro-5H-13,17-(azeno)pyrimido[4',5':3,4]pyrazolo[1,2-a][1,2]diazacyclotridecin-5-one] | – | 0.129 | – | –
Cc1cc(Nc2ncc3c(=O)n4n(c3n2)-c2cccc(n2)C(C)(O)CC/C=C\C4)ccc1O[C@H]1CCN(C)C1 (stereo partly drawn) [Compound 186, (R,Z)-12-hydroxy-12-methyl-2-((3-methyl-4-(((S)-1-methylpyrrolidin-3-yl)oxy)phenyl)amino)-7,10,11,12-tetrahydro-5H-13,17-(azeno)pyrimido[4',5':3,4]pyrazolo[1,2-a][1,2]diazacyclotridecin-5-one] | 0.0187 | – | – | –
Cc1cc(Nc2ncc3c(=O)n4n(c3n2)-c2cccc(n2)C(C)(O)CCC=CC4)ccc1CN1CCN(C)CC1=O (stereo not drawn) [Compound 199, (Z)-12-hydroxy-12-methyl-2-((3-methyl-4-((4-methyl-2-oxopiperazin-1-yl)methyl)phenyl)amino)-7,10,11,12-tetrahydro-5H-13,17-(azeno)pyrimido[4',5':3,4]pyrazolo[1,2-a][1,2]diazacyclotridecin-5-one] | – | 0.0591 | strongly inhibited | strongly inhibited
Cc1cc(Nc2ncc3c(=O)n4n(c3n2)-c2cccc(n2)C(C)(O)CCC=CC4)ccc1OC1CCN(CC(F)(F)F)CC1 (stereo not drawn) [Compound 206, (Z)-12-hydroxy-12-methyl-2-((3-methyl-4-((1-(2,2,2-trifluoroethyl)piperidin-4-yl)oxy)phenyl)amino)-7,10,11,12-tetrahydro-5H-13,17-(azeno)pyrimido[4',5':3,4]pyrazolo[1,2-a][1,2]diazacyclotridecin-5-one] | – | 0.13 | – | –
CN1CC2CC(Oc3ccc(Nc4ncc5c(=O)n6n(c5n4)-c4cccc(n4)C(C)(O)CCC=CC6)cc3C(F)(F)F)CC2C1 (stereo not drawn) [Compound 223, (Z)-12-hydroxy-12-methyl-2-((4-((2-methyloctahydrocyclopenta[c]pyrrol-5-yl)oxy)-3-(trifluoromethyl)phenyl)amino)-7,10,11,12-tetrahydro-5H-13,17-(azeno)pyrimido[4',5':3,4]pyrazolo[1,2-a][1,2]diazacyclotridecin-5-one] | 0.0187 | 0.0218 | strongly inhibited | strongly inhibited
CN(C)S(=O)(=O)c1ccc2c(c1)/C(=C/c1cc3c([nH]1)CCCC3)C(=O)N2 [SU6656] | – | 0.043 | – | –
